Laboratory results taken from patent US10654860B2, “Tricyclic rho kinase inhibitors” (BRISTOL-MYERS SQUIBB COMPANY, priority 2016, dated 2020).

Each compound was assayed against ROCK2 (Homo sapiens (Human), UniProt O75116) (assay: ROCK2 kinase inhibition assay (LABCHIP peptide phosphorylation)). Conditions: 5 μM ATP, 1.5 μM peptide substrate.
Type: biochemical
Protocol: The effectiveness of compounds of the present invention as ROCK inhibitors can be determined in a 30 μL, assay containing 20 mM HEPES, pH 7.5, 20 mM MgCl2, 0.015% Brij-35, 4 mM DTT, 5 μM ATP and 1.5 μM peptide substrate (FITC-AHA-AKRRRLSSLRA-OH). Compounds were dissolved in DMSO so that the final concentration of DMSO was <2%, and the reaction was initiated with Rho kinase variants. After incubation, the reaction was terminated by the addition of EDTA and the phosphorylated and non-phosphorylated peptides separated using a LABCHIP® 3000 Reader (Caliper Life Sciences). […] Compounds were tested in dose-response format, and the inhibition of kinase activity was calculated at each concentration of compound. The inhibition data were fit using a curve-fitting program to determine the IC50; i.e., the concentration of compound required to inhibit 50% of kinase activity.
Representative Examples were tested in the ROCK2 assay described above and found having ROCK2 inhibitory activity. The ranges of the ROCK2 IC50 values are as follows: ROCK2 IC50: ++++(<10 nM)+++(10-100 nM)++(100-500 nM)+(500-2000 nM)

Sequence of ROCK2 (O75116 whole entry, species assumed): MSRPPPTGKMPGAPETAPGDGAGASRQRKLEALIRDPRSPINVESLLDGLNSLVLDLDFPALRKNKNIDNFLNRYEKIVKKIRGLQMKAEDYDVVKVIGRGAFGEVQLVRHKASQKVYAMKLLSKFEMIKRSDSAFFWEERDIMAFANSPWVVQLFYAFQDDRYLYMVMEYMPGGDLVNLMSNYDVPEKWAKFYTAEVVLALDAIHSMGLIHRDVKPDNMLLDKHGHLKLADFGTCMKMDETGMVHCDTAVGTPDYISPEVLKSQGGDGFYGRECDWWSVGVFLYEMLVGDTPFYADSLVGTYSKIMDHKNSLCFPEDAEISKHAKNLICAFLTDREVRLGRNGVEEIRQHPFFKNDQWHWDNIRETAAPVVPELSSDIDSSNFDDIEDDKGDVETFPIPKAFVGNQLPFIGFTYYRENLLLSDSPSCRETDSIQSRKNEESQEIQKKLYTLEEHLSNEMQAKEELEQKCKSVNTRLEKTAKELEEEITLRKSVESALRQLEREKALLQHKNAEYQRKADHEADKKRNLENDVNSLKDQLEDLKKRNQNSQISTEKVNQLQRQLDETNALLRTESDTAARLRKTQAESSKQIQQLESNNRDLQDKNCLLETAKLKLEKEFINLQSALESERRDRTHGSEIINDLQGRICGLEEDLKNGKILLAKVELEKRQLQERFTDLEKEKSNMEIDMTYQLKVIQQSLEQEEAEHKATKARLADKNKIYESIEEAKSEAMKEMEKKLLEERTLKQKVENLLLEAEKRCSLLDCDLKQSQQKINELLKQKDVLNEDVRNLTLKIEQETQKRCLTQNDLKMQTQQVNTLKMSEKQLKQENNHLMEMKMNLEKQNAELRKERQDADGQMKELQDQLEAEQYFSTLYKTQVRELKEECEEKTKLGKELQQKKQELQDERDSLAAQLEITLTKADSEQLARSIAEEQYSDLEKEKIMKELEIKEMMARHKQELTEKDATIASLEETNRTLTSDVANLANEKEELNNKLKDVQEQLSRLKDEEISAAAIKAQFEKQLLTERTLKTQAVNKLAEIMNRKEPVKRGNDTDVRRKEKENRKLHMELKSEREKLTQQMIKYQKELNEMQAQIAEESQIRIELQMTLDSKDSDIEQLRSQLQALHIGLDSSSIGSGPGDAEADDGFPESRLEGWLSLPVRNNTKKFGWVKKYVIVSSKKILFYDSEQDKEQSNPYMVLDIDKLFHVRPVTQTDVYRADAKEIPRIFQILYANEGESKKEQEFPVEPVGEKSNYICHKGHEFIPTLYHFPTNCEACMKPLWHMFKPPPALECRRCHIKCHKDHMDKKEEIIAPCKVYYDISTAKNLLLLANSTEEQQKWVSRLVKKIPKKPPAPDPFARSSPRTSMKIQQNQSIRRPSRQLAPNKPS

Row | IC50 [nM] | Structure (SMILES)
1 | 500 to 2000 | O=C1C(Nc2ccc3ncsc3c2)CCN1c1ccc2c(n1)OCc1n[nH]cc1-2 (racemic) [Example 32, 3-(benzo[d]thiazol-6-ylamino)-1-(2,4-dihydropyrazolo[4′,3′:4,5]pyrano[2,3-b]pyridin-7-yl)pyrrolidin-2-one]
2 | 500 to 2000 | N#Cc1cccc(NC2CCN(c3ccc4c(n3)OCc3n[nH]cc3-4)C2=O)c1 (racemic) [Example 34, 3-((1-(2,4-dihydropyrazolo[4′,3′:4,5]pyrano[2,3-b]pyridin-7-yl)-2-oxopyrrolidin-3-yl)amino)benzonitrile]
3 | 500 to 2000 | O=C1C(Nc2cccc(-c3cnco3)c2)CCN1c1ccc2c(n1)OCc1n[nH]cc1-2 (racemic) [Example 35, 1-(2,4-dihydropyrazolo[4′,3′:4,5]pyrano[2,3-b]pyridin-7-yl)-3-((3-(oxazol-5-yl)phenyl)amino)pyrrolidin-2-one]
4 | 100 to 500 | O=C1N(Cc2cccc(F)c2)CCN1c1ccc2c(n1)OCc1n[nH]cc1-2 [Example 25, 1-(2,4-dihydropyrazolo[4′,3′:4,5]pyrano[2,3-b]pyridin-7-yl)-3-(3-fluorobenzyl)imidazolidin-2-one]
5 | 100 to 500 | Cc1cc(CN2CCN(c3ccc4c(n3)OCc3n[nH]cc3-4)C2=O)ccc1F [Example 26, 1-(2,4-dihydropyrazolo[4′,3′:4,5]pyrano[2,3-b]pyridin-7-yl)-3-(4-fluoro-3-methylbenzyl)imidazolidin-2-one]
6 | 100 to 500 | COc1cccc(CN2CCN(c3ccc4c(n3)OCc3n[nH]cc3-4)C2=O)c1F [Example 27, 1-(2,4-dihydropyrazolo[4′,3′:4,5]pyrano[2,3-b]pyridin-7-yl)-3-(2-fluoro-3-methoxybenzyl)imidazolidin-2-one]
7 | 100 to 500 | Cc1cc(F)ccc1CN1CCN(c2ccc3c(n2)OCc2n[nH]cc2-3)C1=O [Example 28, 1-(2,4-dihydropyrazolo[4′,3′:4,5]pyrano[2,3-b]pyridin-7-yl)-3-(4-fluoro-2-methylbenzyl)imidazolidin-2-one]
8 | 100 to 500 | O=C1N(Cc2ccc(F)c(F)c2)CCN1c1ccc2c(n1)OCc1n[nH]cc1-2 [Example 29, 1-(3,4-difluorobenzyl)-3-(2,4-dihydropyrazolo[4′,3′:4,5]pyrano[2,3-b]pyridin-7-yl)imidazolidin-2-one]
9 | 100 to 500 | O=C1N(Cc2cc(F)ccc2F)CCN1c1ccc2c(n1)OCc1n[nH]cc1-2 [Example 30, 1-(2,5-difluorobenzyl)-3-(2,4-dihydropyrazolo[4′,3′:4,5]pyrano[2,3-b]pyridin-7-yl)imidazolidin-2-one]
10 | 500 to 2000 | CC(C)(C)c1cccc(CN2CCN(c3ccc4c(n3)OCc3n[nH]cc3-4)C2=O)c1 [Example 31, 1-(3-(tert-butyl)benzyl)-3-(2,4-dihydropyrazolo[4′,3′:4,5]pyrano[2,3-b]pyridin-7-yl)imidazolidin-2-one]
11 | 500 to 2000 | O=C1N(Cc2c(F)cccc2F)CCN1c1ccc2c(n1)OCc1n[nH]cc1-2 [Example 33, 1-(2,6-difluorobenzyl)-3-(2,4-dihydropyrazolo[4′,3′:4,5]pyrano[2,3-b]pyridin-7-yl)imidazolidin-2-one]

More lines, now with the values behind:

Row | Structure (SMILES) | IC50 [nM]
12 | O=C1N(c2ccc3c(c2)CCc2n[nH]cc2-3)CCC12Cc1ccccc1N2 (racemic) [Example 1, (rac)-1′-(4,5-dihydro-2H-benzo[e]indazol-7-yl)spiro[indoline-2,3′-pyrrolidin]-2′-one] | < 10
13 | COc1cccc(NC2CCN(c3ccc4c(n3)OCc3n[nH]cc3-4)C2=O)c1 (racemic) [Example 11, 1-(2,4-dihydropyrazolo[4′,3′:4,5]pyrano[2,3-b]pyridin-7-yl)-3-((3-methoxyphenyl)amino)pyrrolidin-2-one] | 10 to 100
14 | COc1cc(F)cc(NC2CCN(c3ccc4c(n3)OCc3n[nH]cc3-4)C2=O)c1 (racemic) [Example 12, 1-(2,4-dihydropyrazolo[4′,3′:4,5]pyrano[2,3-b]pyridin-7-yl)-3-((3-fluoro-5-methoxyphenyl)amino)pyrrolidin-2-one] | 10 to 100
15 | COc1cccc(NC2CCN(c3ccc4c(c3)OCc3n[nH]cc3-4)C2=O)c1 (racemic) [Example 13, 1-(2,4-dihydrochromeno[3,4-c]pyrazol-7-yl)-3-((3-methoxyphenyl)amino)pyrrolidin-2-one] | < 10
16 | O=C1N(c2ccc3c(c2)CCc2n[nH]cc2-3)CCC12Cc1ccccc1N2 (single isomer, unassigned) [Example 6, 1′-(4,5-dihydro-2H-benzo[e]indazol-7-yl)spiro[indoline-2,3′-pyrrolidin]-2′-one] | < 10
17 | COc1cccc(NC2CCN(c3ccc4c(c3)OCc3n[nH]cc3-4)C2=O)c1 (single isomer, unassigned) [Example 10, 1-(2,4-dihydrochromeno[3,4-c]pyrazol-7-yl)-3-((3-methoxyphenyl)amino)pyrrolidin-2-one] | < 10
18 | O=C1N(c2ccc3c(c2)CCc2n[nH]cc2-3)CCC12Cc1ccccc1N2 (single isomer, unassigned) [Example 16, 1′-(4,5-dihydro-2H-benzo[e]indazol-7-yl)spiro[indoline-2,3′-pyrrolidin]-2′-one] | 10 to 100
19 | COc1cccc(NC2CCN(c3ccc4c(c3)OCc3n[nH]cc3-4)C2=O)c1 (single isomer, unassigned) [Example 17, 1-(2,4-dihydrochromeno[3,4-c]pyrazol-7-yl)-3-((3-methoxyphenyl)amino)pyrrolidin-2-one] | 10 to 100
20 | COc1cccc(CN2CCN(c3ccc4c(c3)CCc3n[nH]cc3-4)C2=O)c1 [Example 2, 1-(4,5-dihydro-2H-benzo[e]indazol-7-yl)-3-(3-methoxybenzyl)imidazolidin-2-one] | < 10
21 | COc1cccc(N[C@H]2CCN(c3ccc4c(c3)CCc3n[nH]cc3-4)C2=O)c1 [Example 3, (S)-1-(4,5-dihydro-21-benzo[e]indazol-7-yl)-3-((3-methoxyphenyl)amino)pyrolidin-2-one] | < 10
22 | COc1cccc(CNC(=O)Nc2ccc3c(n2)OCc2n[nH]cc2-3)c1 [Example 5, 1-(2,4-dihydropyrazolo[4′,3′:4,5]pyrano[2,3-b]pyridin-7-yl)-3-(3-methoxybenzyl)urea] | 10 to 100
23 | COc1cccc([C@@H](C)N2CCN(c3ccc4c(c3)CCc3n[nH]cc3-4)C2=O)c1 [Example 7, (R)-1-(4,5-dihydro-2H-benzo[e]indazol-7-yl)-3-(1-(3-methoxyphenyl)ethyl)imidazolidin-2-one] | < 10
24 | COc1cccc(CN2CCN(c3ccc4c(n3)CCc3n[nH]cc3-4)C2=O)c1 [Example 8, 1-(4,5-dihydro-2H-pyrazolo[4,3-f]quinolin-7-yl)-3-(3-methoxybenzyl)imidazolidin-2-one] | < 10
25 | COc1cccc(N[C@@H]2CCN(c3ccc4c(c3)CCc3n[nH]cc3-4)C2=O)c1 [Example 9, (R)-1-(4,5-dihydro-2H-benzo[e]indazol-7-yl)-3-((3-methoxyphenyl)amino)pyrrolidin-2-one] | < 10
26 | COc1cccc(CN2CCN(c3ccc4c(c3)OCc3n[nH]cc3-4)C2=O)c1 [Example 14, 1-(2,4-dihydrochromeno[3,4-c]pyrazol-7-yl)-3-(3-methoxybenzyl)imidazolidin-2-one] | < 10
27 | COc1cccc(CN2CCN(c3ccc4c(n3)OCc3n[nH]cc3-4)C2=O)c1 [Example 15, 1-(2,4-dihydropyrazolo[4′,3′:4,5]pyrano[2,3-b]pyridin-7-yl)-3-(3-methoxybenzyl)imidazolidin-2-one] | < 10
28 | COc1cc(F)cc(CN2CCN(c3ccc4c(n3)OCc3n[nH]cc3-4)C2=O)c1 [Example 18, 1-(2,4-dihydropyrazolo[4′,3′:4,5]pyrano[2,3-b]pyridin-7-yl)-3-(3-fluoro-5-methoxybenzyl)imidazolidin-2-one] | 10 to 100
29 | COc1cccc(CN2CCN(c3ccc4c(c3)CCc3n[nH]c(C)c3-4)C2=O)c1 [Example 19, 1-(3-methoxybenzyl)-3-(1-methyl-4,5-dihydro-2H-benzo[e]indazol-7-yl)imidazolidin-2-one] | 10 to 100
30 | Cc1ccc(F)c(CN2CCN(c3ccc4c(n3)OCc3n[nH]cc3-4)C2=O)c1 [Example 20, 1-(2,4-dihydropyrazolo[4′,3′:4,5]pyrano[2,3-b]pyridin-7-yl)-3-(2-fluoro-5-methylbenzyl)imidazolidin-2-one] | 10 to 100
31 | O=C1N(Cc2cc(F)cc(F)c2)CCN1c1ccc2c(n1)OCc1n[nH]cc1-2 [Example 21, 1-(3,5-difluorobenzyl)-3-(2,4-dihydropyrazolo[4′,3′:4,5]pyrano[2,3-b]pyridin-7-yl)imidazolidin-2-one] | 10 to 100
32 | Cc1c(F)cccc1CN1CCN(c2ccc3c(n2)OCc2n[nH]cc2-3)C1=O [Example 22, 1-(2,4-dihydropyrazolo[4′,3′:4,5]pyrano[2,3-b]pyridin-7-yl)-3-(3-fluoro-2-methylbenzyl)imidazolidin-2-one] | 10 to 100
33 | NC(=O)c1cccc(CN2CCN(c3ccc4c(n3)OCc3n[nH]cc3-4)C2=O)c1 [Example 23, ((3-(2,4-dihydropyrazolo[4′,3′:4,5]pyrano[2,3-b]pyridin-7-yl)-2-oxoimidazolidin-1-yl)methyl)benzamide] | 10 to 100
34 | Cc1c(F)cccc1NC1CCN(c2ccc3c(n2)OCc2n[nH]cc2-3)C1=O (stereo not shown) [Example 24, 1-(2,4-dihydropyrazolo[4′,3′:4,5]pyrano[2,3-b]pyridin-7-yl)-3-((3-fluoro-2-methylphenyl)amino)pyrrolidin-2-one] | 100 to 500
